According to US12485114B2, “Materials and methods useful to induce cancer cell death via methuosis or autophagy or a combination thereof” (The University of Toledo, priority 2017, dated 2025):

Key:
cancer cells [1] = test: Vacuoles formation and cell death with necroptosis inhibitor necrostatin-1; type: cell-based; conditions: necrostatin-1 up to 30 μM
Experimental: BAPT-27 induces a type of death that is also independent of necrosis or necroptosis. The vacuoles formation and cell death was not inhibited by the addition of necrostatin-1, a necroptosis inhibitor, even at high concentrations (up to 30 μM).
BAPT-27 induces a type of death that is independent of necrosis or necroptosis. The vacuoles formation and cell death was not inhibited by the addition of necrostatin-1, a necroptosis inhibitor, even at high concentrations (up to 30 μM). (FIG. 44).

C57BL/6 mice = test: Safety studies in C57BL/6 mice; type: in vivo
Experimental: FIG. 53A: C57BL/6J mice (8-10 weeks old) were treated intraperitoneally with indicated concentration of BAPT-27 or vehicle (saline) for 14 days. At the end of 14 days, blood was collected in heparin-coated tubes for blood chemistry analysis using abaxis veterinary chemistry analyzer (VETSCAN vs2).
FIG. 53B: Representative immunohistochemical slides are shown for kidney, liver, heart and brain for C57BL/6mice treated intraperitoneally with vehicle (saline) or BAPT-27 at 86.6 mg/kg. The whole tissue section and 10× magnification slides are shown.

[2] = tested on: NSCLC cells resistant to apoptosis; test: Activity in apoptosis-resistant NSCLC cells; type: cell-based
Excerpt: (§1) (FIG. 46). NSCLC cells resistant to apoptosis are also sensitive to the activities of BAPT-27.

cancer cells [3] = test: Loss of viability and non-apoptotic cell death assessment (nuclei, electron microscopy, annexin, z-VAD-fmk); type: cell-based
Experimental: Cells treated with BAPT-27 lose their viability within 72 h. […] Through electron microscopy there were clearly no signs of apoptosis (i.e., cell shrinkage, nuclear condensation, blebbing) seen.

zebrafish = test: Safety in zebrafish; type: in vivo; conditions: 100 μM
Experimental: The safety of BAPT-27 was studied in zebrafish. BAPT-27 is safe in zebrafish even at a very high concentration of 100 μM. The fish were healthy with no changes in their morphology, swim positions, or their cardiac parameters. (FIG. 52).

[4] = tested on: Transcription factor EB (TFEB)— associated lysosomal and autophagy genes; test: RNA-seq analysis of TFEB-associated lysosomal and autophagy genes; type: cell-based; conditions: HCT-116, 10 μM, 6 h
Excerpt: Autophagosome and lysosomal homeostasis is governed by transcription factor EB (TFEB)—mTOR signaling pathways (TFEB-mTOR pathway). […] (FIG. 51A & FIG. 51B & FIG. 51C).

lysosomes = test: Lysotracker red dye accumulation; type: cell-based
[5] = tested on: colon, pancreatic, ovarian, lung, and prostate cancer cell lines; test: Vacuole accumulation in cancer cell lines; type: cell-based
Excerpt: The vacuoles are originated from macropinocytosomes as confirmed by extracellular fluid phase tracers. Vacuolization has been described previously as methuosis. However, the vacuoles induced here combine the characteristics of methuosis, autophagy, enhanced lysosomal activity, and other distinct characteristics.

macropinocytosis = test: Lucifer yellow dye uptake (macropinocytosis); type: cell-based; conditions: 10 μM, 6 h treatment
Excerpt: (§2) BAPT-27 induced vacuoles that combine both methuosis and autophagy characteristics. […] The author mechanism involved in this non-conventional cell death mechanism is a special type of […] that has been termed methuosis. The treatment of cells by BAPT-27 caused the displacement of the cytoplasm by vacuoles derived from macropinosomes. At early time points, the vacuoles are small in size. The small vacuoles then increase in number, and then fuse with each other over time forming larger vacuoles that cover the whole cytoplasm. Eventually, this causes a disturbance of the cell membrane and burst of the cells, release of fluids, detachment of cell, and death. […] Accordingly, alteration in both autophagic and methuosis mechanisms are involved in the BAPT-27 cell death process.

[6] = tested on: HCT116, HCT116 Bax −/−, HCT116 Bak −/−, HCT116 Bax/Bak−/−; test: Death in apoptosis resistant colon cancer cell lines; type: cell-based; conditions: cell lines missing pro-apoptotic genes Bax and Bak
Excerpt: (§3) The cells became sensitive to the cytotoxicity of mitoxantrone when combined with BAPT-27. Further, BAPT-27 induced death in apoptosis resistant cell lines including colon cancer cell lines that are missing important pro-apoptotic genes Bax and Bak using well established models (HCT116, HCT116 Bax −/−, HCT116 Bak −/−, HCT116 Bax/Bak−/−). Accordingly, BAPT-27 represents a family of compounds that induce cell death in sensitive and resistant cancers, as well as those cancers that are refractory to death by conventional apoptosis inducing anticancer agents.

β-tubulin = β-tubulin expression and microtubules dynamics; type: cell-based; parameters: β-tubulin expression levels: dose or concentration left out as unconfirmed
[7] = tested on: autophagic signaling pathways; test: Autophagy markers and autophagy inhibitors (acridine orange, LC3B, 3-MA, chloroquine); type: cell-based
Excerpt: as §2
Without wishing to be bound by theory, it is believed that the mechanism by which BAPT-27 is produces its activities is due to alteration in key signaling pathways and several cellular events: (1) significant activation of macropinocytosis (FIGS. 32-33), and (2) significant alteration in autophagic signaling resulting in the accumulation of autophagic markers such as LC3 II and acridine orange (FIG. 37).
At 6 h treatment, the vacuoles were tiny and smaller in size in combination compared to BAPT-27 alone. (FIG. 48). […] (FIG. 48).

[8] = tested on: resistant lung cancer cell lines H460-MX20; test: Reversal of multidrug resistance, combined with mitoxantrone; type: cell-based
Excerpt: as §3, §1

[9] = tested on: resistant colon cancer cell lines S1M180; test: as above; type: cell-based
Excerpt: as §3, §1

HCT116 cells = test: Electron microscopy of treated cells; type: cell-based
Experimental: The vacuoles are indicated by V in FIG. 31. The single membranes of the vacuoles are destroyed (indicated by arrows in FIG. 31), allowing small vacuoles to merge, forming bigger vacuoles.
The vacuoles are fluid filled with traces of membranes due to vacuoles fusion events. The nuclei are healthy with no signs of chromatin condensation and are unaffected at even a high concentration (30 μM). However, as the vacuoles coalesce and grow in size, the nuclei are pushed on the edges of the cells. The nuclei are indicated by white N, and the vacuoles are indicated by black arrows, in FIG. 32.
(FIG. 38). The ER is indicated by black arrows.

[10] = cells became sensitive to mitoxantrone in combination

For Sc1nnc(-c2ccncc2)n1/N=C/c1c[nH]c2ccccc12 [BAPT-27, 4-(((1H-Indol-3-Yl)Methylene)Amino)-5-(Pyridin-4-Yl)-4H-1,2,4-Triazole-3-Thiol], the “inhibition of vacuoles formation and cell death by necrostatin-1” value (cancer cells [1]) was “not inhibited”, the safety in mice (C57BL/6 mice; 86.6 mg/kg given intraperitoneally) was “safe” and the “behavioral or phenotypic toxicity” value (C57BL/6 mice; up to 14 days) was “no behavioral or phenotypic toxicity”. The “sensitivity to the activities of BAPT-27” value [2] was “sensitive”, the “alteration in the intrinsic apoptotic pathways (proapoptotic and antiapoptotic proteins)” value (cancer cells [3]) was “no alteration” and the annexin fluorescence (cancer cells [3]) was “not changed”. The “apoptotic changes of nuclei (chromatin condensation or DNA fragmentation)” value (cancer cells [3]) was “no apoptotic changes”, the “protection from death by pan-caspase inhibitor z-VAD-fmk” value (cancer cells [3]) was “did not protect the cells from death” and the “time to loss of viability” value (cancer cells [3]; cells treated with BAPT-27) was ≤ 72 h. The “cells observed to have died through apoptosis” value (cancer cells [3]; electron microscopy, very high concentration) was “one in 100 cells”, the “block of vacuoles formation by z-VAD” value (cancer cells [3]; z-VAD 100 μM, BAPT-27 10 μM, 24 h and 72 hr) was “does not block” and the “changes in morphology, swim positions, or cardiac parameters” value (zebrafish) was “no changes”. The safety in zebrafish (zebrafish) was “safe”, the “expression of TFEB-associated lysosomal and autophagy genes” value [4] was “upregulated” and the “lysotracker red dye inside the formed vacuoles” value (lysosomes) was “significant accumulation”. For the same compound, the “accumulation of fluid filled-cytoplasmic vacuoles” value [5] was “induces the rapid accumulation of extensive fluid filled-cytoplasmic vacuoles”, the “Lucifer yellow dye in formed vacuoles” value (macropinocytosis) was “Extensive accumulation” and the “cell death in apoptosis resistant cell lines” value [6] was “induced death”. The β-tubulin expression levels (β-tubulin) was “no significant change”, the microtubules dynamics (β-tubulin; 24 h) was “significant disturbance” and the “LC3B cleavage and LC3B loci at the borders of the vacuoles” value [7] was “induced the cleavage of LC3B”. The “acridine orange in vacuoles (activated acidic compartments)” value [7] was “accumulation of acridine orange”, the “inhibition of vacuoles formation or cytotoxic effects by autophagy inhibitors 3-MA and chloroquine” value [7] was “did not inhibit” and the “block of vacuoles formation by 3-methyl adenine” value ([7]; 3-MA 300 μM, BAPT-27 10 μM, 24 h and 72 hr) was “does not block”. For the same compound, the “effect of chloroquine on vacuoles formation” value ([7]; CQ 5 μM, BAPT-27 10 μM, 6 h) was “delay of vacuoles formation”, the “effect of chloroquine on vacuoles regaining normal size” value ([7]; CQ 5 μM, BAPT-27 10 μM, 24 h) was “could not prevent” and the “delivery and sensitivity of doxorubicin and mitoxantrone” value [8] was “increase the delivery and enhanced sensitivity”. The “reversal of multidrug resistance” value [8, 10] was “reversed multidrug resistance”, the “delivery and sensitivity of doxorubicin and mitoxantrone” value [9] was “increase the delivery and enhanced sensitivity” and the “reversal of multidrug resistance” value [9, 10] was “reversed multidrug resistance”. For the same compound, the “formation of single membrane vacuoles (electron microscopy)” value (HCT116 cells; 10 μM) was “extensive formation of single membrane vacuoles”, the “state of nuclei (electron microscopy)” value (HCT116 cells; high concentration (30 μM)) was “unaffected” and the “state of endoplasmic reticulum (electron microscopy)” value (HCT116 cells; highest concentration 100 μM) was “normal and not stressed”.
